Data on three compounds can be found in patent US11819489B2 (priority 2017, dated 2023).

Series [1] has as its system K562 cells. Nature of the series: cells. To be noted: Homo sapiens, K562, 24 h.
In series [2] the test system is HL-60 cells. Nature of the series: cells. The conditions noted are these: Homo sapiens, HL-60, 24 h.
In series [3] the test system is KARPAS 45 cells. Nature of the series: cells. The conditions noted are these: Homo sapiens, 24 h.
Series [4] deals with HepG2 cells. Nature of the series: cells. To be noted: Homo sapiens, HepG2, 24 h.
Series [5] concerns Chinese hamster (CH) solid tumour cells. Nature of the series: cells. To be noted: Cricetulus griseus, 24 h.
Series [6] deals with human peripheral blood mononuclear cells (hPBMC). Nature of the series: cells. To be noted: PBMC, 24 h.
Series [7] is described as follows: in vitro. The conditions noted are these: human.
Series [8] can be described thus: in vitro. The conditions noted are these: Chinese hamster.
The subject of series [9] is K562 cells. Nature of the series: Cellular As uptake, K562 cells. It is filed as cell-based, human. The conditions noted are these: K562, 24-h treatment, 1.5 μM As. How it is done:
(§1) FIG. 24 is a graphical summary of the cellular As concentrations associated with the specified cell lines following 24-h treatment (1.5 μM As). The results are represented as the mean and standard deviation of triplicate samples.
(§2) FIG. 24 summarises the cellular As concentrations associated with the different cell types following 24-h treatment with the various As compounds (1.5 μM As). The leukemia cell lines, K562, HL-60, Kasumi-1 and KARPAS 45, are depicted in red (lighter of the filled in blocks), and the non-leukemia cell types are depicted in black (darkest shading), with the cancerous adherent cells, HepG2, in the diagonal stripes, and the normal cells, hPBMC, in solid black.

Series [10] concerns HL-60 cells. Nature of the series: Cellular As uptake, HL-60 cells. The conditions noted are these: HL-60, 24-h treatment, 1.5 μM As. In kind it is cell-based, human. On the procedure: as §1, §2
The subject of series [11] is Kasumi-1 cells. As to the kind of experiment: Cellular As uptake, Kasumi-1 cells. To be noted: Kasumi-1, 24-h treatment, 1.5 μM As. In kind it is cell-based, human. How it is done:
as §1, §2

In series [12] the test system is KARPAS 45 cells. Nature of the series: Cellular As uptake, KARPAS 45 cells. It is filed as cell-based, human. The conditions noted are these: 1.5 μM As; for cellular As concentration: KARPAS 45, 24-h treatment. On the procedure: as §1, §2
Series [13] relates to HepG2 cells. In kind it is cell-based, human.
The next series concerns hPBMC. As to the kind of experiment: Cellular As uptake, hPBMC. It is filed as cell-based, human. To be noted: 24-h treatment, 1.5 μM As. How it is done: as §1, §2
The test system of series [14] is K562 cells.
Series [15] relates to KARPAS 45 cells.
For series [16], the system named is human peripheral blood mononuclear cells (hPBMC).
The test system of series [17] is Kasumi-1 cells. As to the kind of experiment: cells. To be noted: Homo sapiens, Kasumi 1, 24 h.
In series [18] the test system is HL-60 cells.
In series [19] the test system is HepG2 cells.

Where two headings read alike, the source gives them in different places. Some results are limits rather than exact numbers.

As to `CC(=O)Nc1cc([As](=O)(O)O)ccc1O` [Acetarsol], the IC50 (with K562 cells [1]; in the series on HL-60 cells [2]; with KARPAS 45 cells [3]; with HepG2 cells [4]; in [5]; in series [6]) was above 1000 µM each time. The viability at 1000 µM in the series with K562 cells [1] (read-out: K562 cells still viable) is 60.5%. The viability in the series “in vitro [7]” and in “in vitro [8]” was around 100% each time.

Consider `O=[As]O` [Arsenite, Sodium meta-arsenite], for which the “cellular As concentration” value with K562 cells [9], in the series with HL-60 cells [10], in the series with Kasumi-1 cells [11], with KARPAS 45 cells [12], with HepG2 cells [13] and with hPBMC was < 4×10^−14 g/cell each time. Further, the “cellular As concentration in KARPAS 45 cells, times more than in HepG2 cells” value in the series on KARPAS 45 cells [12] (24-h treatment) is given as 2.2 times. In addition, the IC50 came to 18.6 ± 0.5 µM in the series with K562 cells [14]; 66 ± 3 µM in the series on KARPAS 45 cells [15]; 40 ± 8 µM in [16]; 18.6 ± 0.49 µM in the series on K562 cells [1]; 20 ± 1 µM in the series with HL-60 cells [2]; 61.2 ± 0.6 µM in the series on Kasumi-1 cells [17]. For the same compound, the IC50 with KARPAS 45 cells [3] is 66.2 ± 2.6 µM; in the series with HepG2 cells [4], 89 ± 1 µM; in series [5], 26.1 ± 0.8 µM; in [6], 40.1 ± 7.7 µM.

Consider `CC(=O)N[C@H]1CS[As](c2ccccc2)SC[C@@H](C(=O)O)NC(=O)[C@H](CCCNC(=N)N)NC(=O)[C@H](CC(C)C)NC(=O)[C@H](Cc2ccc(O)cc2)NC(=O)[C@H](CCCNC(=N)N)NC(=O)[C@H](Cc2c[nH]cn2)NC(=O)[C@H](CCCNC(=N)N)NC(=O)[C@H](C)NC1=O` (some centres unmarked) [PhAs(sLHP)], for which the “cellular As concentration” value in the series on K562 cells [9], in the series with HL-60 cells [10], in the series on Kasumi-1 cells [11], in the series with KARPAS 45 cells [12], with HepG2 cells [13] and in the series on hPBMC was “no detectable As uptake” each time. In addition, the IC50 was 790 ± 30 µM in the series with K562 cells [14], 205 ± 4 µM with HL-60 cells [18], 960 ± 10 µM with HepG2 cells [19] and 665 ± 8 µM in series [16]. Moreover, the figures for the “times less toxic than PhAs(LHP)” value in the series on K562 cells [14] and in the series on KARPAS 45 cells [15] were 1600 times and 32 times, respectively.

As usually defined, the IC50 is the concentration that inhibits the measured activity by half. High values mean a need for much substance, low ones inhibition by little substance.
